Data published in patent US6794402B2, “Bicyclic cyclohexylamines and their use as NMDA receptor antagonists” (Warner-Lambert Company, priority 2000, dated 2004).
Structures can show the parent of a compound that is named as a salt.

System: not given
Test: not given
Settings: not given

Compound	melting point
O=c1[nH]c2ccc([C@H]3CC[C@H](NCCCc4ccc(F)cc4)CC3)cc2o1 (as salt: HCl) [Example 4a, 6-{trans-4-[3-(4-Fluorophenyl)propylamino]cyclohexyl}-3H-benzoxazol-2-one]	293 to 307 °C
O=c1[nH]c2ccc([C@H]3CC[C@H](NCCSc4ccccc4)CC3)cc2o1 (as salt: HCl) [Example 5a, 6-[trans-4-(2-Phenylsulfanylethylamino)cyclohexyl]-3H-benzoxazol-2-one]	241 to 243 °C
O=c1[nH]c2ccc([C@H]3CC[C@H](NCCSc4ccc(F)cc4)CC3)cc2o1 (as salt: HCl) [Example 8, 6-{trans-4-[2-(4-Fluorophenylsulfanyl)ethylamino]cyclohexyl}-3H-benzoxazol-2-one]	254 to 256 °C
C[C@H](CCc1ccccc1)N[C@H]1CC[C@H](c2ccc3[nH]c(=O)oc3c2)CC1 (as salt: HCl) [Example 9, 6-{trans-4-[(R)-1-Methyl-3-phenylpropylamino]cyclohexyl}-3H-benzoxazol-2-one]	291 to 304 °C
Cc1ccc(CCCN[C@H]2CC[C@@H](c3ccc4[nH]c(=O)oc4c3)CC2)cc1 (as salt: HCl) [Example 13a, 6-[cis-4-(3-p-Tolylpropylamino)cyclohexyl]-3H-benzoxazol-2-one]	263 to 265 °C
O=c1[nH]c2ccc([C@H]3CC[C@H](NCCCc4ccc(C(F)(F)F)cc4)CC3)cc2o1 (as salt: HCl) [Example 14, 6-{trans-4-[3-(4-Trifluoromethylphenyl)propylamino]cyclohexyl}-3H-benzoxazol-2-one]	285 to 295 °C
O=c1[nH]c2ccc([C@H]3CC[C@H](NCC[S+]([O-])c4ccccc4)CC3)cc2o1 (stereo partly drawn) (as salt: HCl) [Example 15, 6-[trans-4-(2-Benzenesulfinylethylamino)cyclohexyl]-3H-benzoxazol-2-one]	107 to 110 °C
O=c1[nH]c2ccc([C@H]3CC[C@H](NCCS(=O)(=O)c4ccccc4)CC3)cc2o1 (as salt: HCl) [Example 16, 6-[trans-4-(2-Benzenesulfonylethylamino)cyclohexyl]-3H-benzoxazol-2-one]	202 to 208 °C
CN(CCSc1ccc(F)cc1)[C@H]1CC[C@H](c2ccc3[nH]c(=O)oc3c2)CC1 (as salt: HCl) [Example 20, 6-{trans-4-[2-(4-Fluorophenylsulfanylethyl)methylamino]cyclohexyl}-3H-benzoxazol-2-one]	213 to 217 °C
Cc1ccc(CCCN(C)[C@H]2CC[C@H](c3ccc4[nH]c(=O)oc4c3)CC2)cc1 (as salt: HCl) [Example 21, 6-{trans-4-[Methyl-3-(p-Tolylpropyl)amino]cyclohexyl}-3H-benzoxazol-2-one]	213 to 225 °C
CN(CCOc1ccccc1)[C@H]1CC[C@H](c2ccc3[nH]c(=O)oc3c2)CC1 (as salt: HCl) [Example 22, 6-{trans-4-[Methyl(2-phenoxyethyl)amino]cyclohexyl}-3H-benzoxazol-2-one]	277 to 285 °C
CN(CCCc1ccc(C(F)(F)F)cc1)[C@H]1CC[C@H](c2ccc3[nH]c(=O)oc3c2)CC1 (as salt: HCl) [Example 23, 6-{trans-4-[Methyl-3-(4-Trifluoromethylphenyl)propylamino]cyclohexyl}-3H-benzoxazol-2-one]	227 to 234 °C
CN(CCCc1ccc(F)cc1F)[C@H]1CC[C@H](c2ccc3[nH]c(=O)oc3c2)CC1 (as salt: HCl) [Example 24b, 6-(trans-4-{[3-(2,4-Difluorophenyl)propyl]methylamino}cyclohexyl)-3H-benzoxazol-2-one]	269 to 272 °C
CCN(CCCc1ccc(F)cc1)[C@H]1CC[C@H](c2ccc3[nH]c(=O)oc3c2)CC1 (as salt: HCl) [Example 25, 6-(trans-4-{Ethyl-[3-(4-fluorophenyl)propyl]amino}cyclohexyl)-3H-benzoxazol-2-one]	228 to 231 °C
CCN(CCCc1ccc(C(F)(F)F)cc1)[C@H]1CC[C@H](c2ccc3[nH]c(=O)oc3c2)CC1 (as salt: HCl) [Example 26]	248 to 252 °C
CCN([C@H]1CC[C@H](c2ccc3[nH]c(=O)oc3c2)CC1)[C@H](C)CCc1ccccc1 (as salt: HCl) [Example 27, 6-(trans-4-{Ethyl-[(R)-1-methyl-3-phenylpropyl]amino}cyclohexyl)-3H-benzoxazol-2-one]	139 to 158 °C

Biological target: T1, [3H]ifenprodil binding site, rat forebrain membranes (Rattus norvegicus, UniProt P35439+Q00960)
T1 construct: membrane fraction was prepared from frozen adult rat forebrains; tissue Zivic-Miller Laboratories, Inc; host or cells: adult rat forebrain, washed buffy coat membrane fraction
Test: [3H]Ifenprodil binding assay
Settings: 4 nM [3H]-ifenprodil, 2 hours at room temperature
Description: All buffers and reagents used in assay incubations or to dissolve drugs were prepared using water purified through a Milli-Q reverse osmosis system (Millipore Corp, Bedford, Mass.) and treated with UV emissions. Prior to use in the assays, buffers were further filtered through a sterile Corning filtration unit (Corning Glass Works, Corning, N.Y.) containing a 0.2-micron filter. Buffer used to rinse the membranes on the assay filters was prepared with purified water, but was not refiltered and was stored no longer than 5 days. Stock solutions of the drugs (usually 10 mM) were dissolved in 20 mM HEPES-KOH buffer pH 7.4 (assay buffer) with the addition of 1 to 5 μL of glacial AcOH, if needed to keep them in solution. For eliprodil the stock solution was buffered with the addition of 10% DMSO. All subsequent dilutions from stock were made in buffer.
An extensively washed buffy coat membrane fraction was prepared from frozen adult rat forebrains (Zivic-Miller Laboratories, Inc., Zelienople, Pa.) as described previously (Coughenour L. L., Cordon, J. J., J. Pharmacol. Exp. Ther., 1997;280:584-592) and stored at −80° C. On the day of the assay, pellets were resuspended in 35 mL of assay buffer at pH 7.4 using a Polytron setting 6. After incubation at 37° C. for 30 minutes in a shaking water bath, the homogenate was centrifuged 40,000×g for 10 minutes at 4° C. The pellets were resuspended in fresh buffer and centrifuged 3 more times before final suspension for use in the assay.
[^3H]Ifenprodil Binding. Triplicate incubations were carried out in a volume of 0.5 mL in 1.3 mL polypropylene tubes (Marsh Biomedical Products Inc., Rochester, N.Y.) for 2 hours at room temperature. Incubations contained test agents, membranes (100-200 μg protein) and 4 nM[^3H]-ifenprodil in 20 mM HEPES-KOH buffer, pH 7.4 (assay buffer). Assays were started by addition of the membranes. Bound radioligand was separated by filtration under reduced pressure using a Tomtec Mach II, 96-well cell harvester (Tomtec Inc., Orange, Colo.). Filtration was through Whatman GF/B glass fiber filters (Whatman Ltd, Maidstone, England), which had been soaked for at least 15 minutes in 0.3% polyethylenimine and allowed to air dry. The filters were rinsed with 3 mL of ice cold assay buffer within 6 seconds. Air was allowed to pass through the filters for an additional 10 seconds to remove residual moisture. The filter mat was supported on a cold (−20° C.) teflon support, and filters from individual wells were separated and placed in Mini Poly-Q vials (Beckman Instruments Inc., Fullerton, Calif.) and filled with 4 mL of scintillation cocktail (Beckman Ready Protein^+). Radioactivity retained on the filter was determined by liquid scintillation spectrophotometry. Nonspecific binding was defined as the binding in the presence of 1 mM ifenprodil. Specific binding was 90%.
Data analysis. Binding curves were statistically analyzed for a best one or two site competition fit using GraphPad Prism software (GraphPad Software Inc., San Diego, Calif.). The normalized data was fit by nonweighted nonlinear regression to either [formula]
Control data was entered as 100%, and no parameters were constrained. Inhibition curves were compared by ANOVA with post test comparisons of the logIC50 using Dunnett's multiple comparisons post test or Student's nonpaired, two-tailed t-test (GraphPad InStat software).

T1 sequence (Q00960 27-1482, other chains not shown): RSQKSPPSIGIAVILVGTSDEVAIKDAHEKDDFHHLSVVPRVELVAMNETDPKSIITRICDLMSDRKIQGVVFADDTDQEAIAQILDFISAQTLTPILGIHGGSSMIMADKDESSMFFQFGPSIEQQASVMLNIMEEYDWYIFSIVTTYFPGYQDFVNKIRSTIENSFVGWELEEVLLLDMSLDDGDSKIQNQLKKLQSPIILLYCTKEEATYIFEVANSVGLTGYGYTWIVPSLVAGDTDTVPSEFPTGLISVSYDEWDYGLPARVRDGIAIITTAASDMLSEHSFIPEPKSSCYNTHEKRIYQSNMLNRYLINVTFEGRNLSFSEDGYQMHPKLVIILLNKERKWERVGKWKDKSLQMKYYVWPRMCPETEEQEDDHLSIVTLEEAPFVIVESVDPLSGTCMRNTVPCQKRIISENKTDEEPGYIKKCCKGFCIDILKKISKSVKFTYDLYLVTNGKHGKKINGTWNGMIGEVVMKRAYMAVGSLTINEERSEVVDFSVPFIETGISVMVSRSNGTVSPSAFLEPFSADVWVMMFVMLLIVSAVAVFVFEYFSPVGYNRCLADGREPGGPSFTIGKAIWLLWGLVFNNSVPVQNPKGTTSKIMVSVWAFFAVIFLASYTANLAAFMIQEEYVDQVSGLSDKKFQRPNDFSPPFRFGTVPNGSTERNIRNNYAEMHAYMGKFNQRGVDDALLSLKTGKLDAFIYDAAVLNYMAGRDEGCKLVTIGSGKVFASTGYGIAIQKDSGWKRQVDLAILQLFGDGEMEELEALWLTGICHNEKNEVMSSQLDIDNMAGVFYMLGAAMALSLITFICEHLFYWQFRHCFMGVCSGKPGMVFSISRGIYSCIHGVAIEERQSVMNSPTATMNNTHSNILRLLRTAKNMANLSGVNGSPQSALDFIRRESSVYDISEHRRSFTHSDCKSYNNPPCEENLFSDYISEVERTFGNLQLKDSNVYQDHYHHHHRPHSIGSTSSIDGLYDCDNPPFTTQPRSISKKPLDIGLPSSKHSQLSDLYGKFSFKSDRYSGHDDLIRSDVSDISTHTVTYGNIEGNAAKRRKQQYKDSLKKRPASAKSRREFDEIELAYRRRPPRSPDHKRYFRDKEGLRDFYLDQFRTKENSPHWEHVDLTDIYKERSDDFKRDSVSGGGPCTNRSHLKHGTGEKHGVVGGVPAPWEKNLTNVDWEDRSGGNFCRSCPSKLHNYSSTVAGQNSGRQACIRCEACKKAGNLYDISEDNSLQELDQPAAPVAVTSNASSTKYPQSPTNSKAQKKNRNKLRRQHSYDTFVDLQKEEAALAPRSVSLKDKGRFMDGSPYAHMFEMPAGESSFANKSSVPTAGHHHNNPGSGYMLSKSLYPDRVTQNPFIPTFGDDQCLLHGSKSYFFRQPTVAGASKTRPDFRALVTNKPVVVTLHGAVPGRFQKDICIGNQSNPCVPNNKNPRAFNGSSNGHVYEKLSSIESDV

Compound	IC50
CN(CCCc1ccsc1)[C@H]1CC[C@H](c2ccc3[nH]c(=O)oc3c2)CC1 [Example 52b, 6-[trans-4-{[3-(3-Thiophen-3-yl)propyl]methylamino}cyclohexyl)-3H-benzoxazol-2-one]	3 nM
CC(C)c1ccc(CCCN(C)[C@H]2CC[C@H](c3ccc4[nH]c(=O)oc4c3)CC2)cc1 [Example 53, 6-(trans-4-{[3-(4-Isopropylphenyl)propyl]methylamino}cyclohexyl)-3H-benzoxazol-2-one]	2 nM
CN(CCCc1ccc(Cl)cc1Cl)[C@H]1CC[C@H](c2ccc3[nH]c(=O)oc3c2)CC1 [Example 54, 6-(trans-4-{[3-(2,4-Dichlorophenyl)propyl]methylamino}cyclohexyl)-3H-benzoxazol-2-one]	34 nM
CN(CCCc1ccc(F)c(F)c1F)[C@H]1CC[C@H](c2ccc3[nH]c(=O)oc3c2)CC1 [Example 55, 6-(trans-4-{[3-(2,3,4-Trifluorophenyl)propyl]methylamino}cyclohexyl)-3H-benzoxazol-2-one]	5 nM
CC(C)Cc1ccc(CCCN(C)[C@H]2CC[C@H](c3ccc4[nH]c(=O)oc4c3)CC2)cc1 [Example 56, 6-(trans-4-{[3-(4-Isobutylphenyl)propyl]methylamino}cyclohexyl)-3H-benzoxazol-2-one]	71 nM
CN(CCCc1c(F)cc(F)cc1F)[C@H]1CC[C@H](c2ccc3[nH]c(=O)oc3c2)CC1 [Example 57, 6-(trans-4-{[3-(2,4,6-Trifluorophenyl)propyl]methylamino}cyclohexyl)-3H-benzoxazol-2-one]	6 nM
CN(CCCc1nccs1)[C@H]1CC[C@H](c2ccc3[nH]c(=O)oc3c2)CC1 [Example 59, 6-{trans-4-[Methyl(3-thiazol-2-ylpropyl)amino]cyclohexyl}-3H-benzoxazol-2-one]	316 nM
CN(CCN(C)[C@H]1CC[C@H](c2ccc3[nH]c(=O)oc3c2)CC1)c1ccccc1 [Example 60, 6-(trans-4-{Methyl-[2-(Methylphenylamino)ethyl]amino}cyclohexyl)-3H-benzoxazol-2-one]	> 1000 nM
CN(CCCc1ccc(F)cc1)[C@H]1CC[C@H](c2ccc3[nH]c(=O)sc3c2)CC1 [Example 61b, 6-(trans-4-{[3-(4-Fluorophenyl)propyl]methylamino}cyclohexyl)-3H-benzthiazol-2-one]	12 nM
O=c1[nH]c2ccc([C@H]3CC[C@H](NCCCc4ccc(F)cc4)CC3)cc2[nH]1 [Example 62, 5-{trans-4-[3-(4-Fluorophenyl)propylamino]cyclohexyl}-1,3-dihydrobenzoimidazol-2-one]	17 nM
CN(CCCc1ccc(F)cc1)[C@H]1CC[C@H](c2ccc3[nH]c(=O)[nH]c3c2)CC1 [Example 63, 5-(trans-4-{[3-(4-Fluorophenyl)propyl]methylamino}cyclohexyl)-1,3-dihydrobenzoimidazol-2-one]	2 nM
Cc1cc2[nH]c(=O)oc2cc1[C@H]1CC[C@H](N(C)CCCc2ccc(F)cc2)CC1 [Example 64, 6-(4-{[3-(4-Fluorophenyl)propyl]methyl-amino}cyclohexyl)-5-methyl-3H-benzoxazol-2-one]	45 nM
COc1cc2[nH]c(=O)oc2cc1[C@H]1CC[C@H](N(C)CCCc2ccc(F)cc2)CC1 [Example 65, 6-(trans-4-{[3-(4-Fluorophenyl)propyl]methylamino}cyclohexyl)-5-methoxy-3H-benzoxazol-2-one]	67 nM
